US8809001B2, “High throughput assays for inhibitors and activators of PAQR receptors” (University of Florida Research Foundation, Inc., priority 2007, dated 2014)

Target: T1, AdipoR1 (Homo sapiens, UniProt Q96A54)
T1 construct: expressed in transfected cells; host or cells: Saccharomyces cerevisiae BY4742, GAL1-driven pYES260 plasmid
T1 sequence (Q96A54 1-375): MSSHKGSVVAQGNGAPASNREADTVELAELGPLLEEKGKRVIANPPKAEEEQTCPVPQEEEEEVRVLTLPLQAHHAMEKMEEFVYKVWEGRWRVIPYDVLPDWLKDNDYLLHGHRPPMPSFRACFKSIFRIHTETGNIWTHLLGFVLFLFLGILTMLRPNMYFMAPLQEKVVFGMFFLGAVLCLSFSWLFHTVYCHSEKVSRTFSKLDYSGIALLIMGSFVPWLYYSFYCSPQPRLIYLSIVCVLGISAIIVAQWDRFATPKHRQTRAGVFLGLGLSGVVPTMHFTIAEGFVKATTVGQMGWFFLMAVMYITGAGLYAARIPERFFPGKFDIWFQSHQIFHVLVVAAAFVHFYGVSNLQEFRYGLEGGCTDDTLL
Assay: FET3-lacZ (pFET3-397) reporter repression in yeast expressing AdipoR1
Assay type: cell-based
Conditions: concentrations as high as 10 μM
Text: IZH1-4 were cloned into pRS316-GAL1 via gap repair as previously described (Lyons et al., 2004). The triple hemaglutinin epitope (3×HA) tagged construct of the IZH2 gene was generated by replacing the ZRC1 promoter and open reading frame in the YCpZRC1-HA plasmid (MacDiarmid et al., 2002) with those of IZH2. This was accomplished by gap repair of Age I-digested YCpZRC1-HA to generate pIZH2-3×HA. This construct has the IZH2 gene driven by its native promoter and retains the ZRC1 terminator sequence. The native IZH2 promoter was then exchanged with the GAL1 promoter using gap repair of pIZH2-3×HA plasmids cut with EcoN I. AdipoR1 and AdipoR2 were amplified from cDNAs obtained from OpenBiosystems (Accession #: BC010743 and BC051858, respectively). PCR products were cloned into NcoI/BamHI digested pYES260 vector (Melcher, 2000) by gap repair allowing for GAL1-driven expression. Plasmids containing GAL1-driven the TAP (Tandem Affinity Purification) tagged NRG1 and NRG2 constructs were purchased from OpenBiosystems. […]
Assays and growth conditions. […] Cells were allowed to grow to mid-log phase at which time the activity of the FET3 gene was monitored using a FET3-lacZ promoter-reporter construct. lacZ activities are presented as a percentage of activity seen in untreated cells expressing the appropriate empty expression vector control. […]

`CC(=O)[C@H]1CC[C@H]2[C@@H]3CCC4=CC(=O)CC[C@]4(C)[C@H]3CC[C@]12C` [Progesterone, progesterone] was tested, and the “response of AdipoR1 to progesterone” value was “do not respond”.
